# Paper PMC10671431, “New Derivatives of N-Hydroxybutanamide: Preparation, MMP Inhibition, Cytotoxicity, and Antitumor Activity” (International Journal of Molecular Sciences, 2023)
# Key:
# [1] = test system: mouse breast carcinoma cells 4T1; set-up: method as in PMID 31637006; details: concentrations up to 50 μg/mL (150.87 μM), 48 h of exposure; cited from earlier work
# [2] = test system: human breast carcinoma cells MDA-MB-435; set-up: method as in PMID 31637006; details: concentrations up to 50 μg/mL (150.87 μM), 48 h of exposure; cited from earlier work
# human glioma U-251 cells = test system: human glioma U-251 cells; set-up: method as in PMID 10048980; details: 10 μM, 96 h of exposure; cited from earlier work
# [3] = test system: hamster peritoneal macrophages; details: 72 h of exposure; cited from earlier work
# [4] = test system: human histiocytic lymphoma cells U-937; set-up: method as in doi:10.17265/1934-7375/2015.06.002; details: 72 h of exposure, cited from earlier work
# [5] = test system: human hepatocellular carcinoma cells HepG2; set-up: method as in doi:10.17265/1934-7375/2015.06.002; details: 72 h of exposure, cited from earlier work
# [6] = test system: co-cultured neonatal rat ventricular fibroblasts and myocytes; set-up: method as in PMID 19365278; details: 24 h of exposure; cited from earlier work
# HepG2 = experiment: Cytotoxicity, MTT test; assay type: cell-based, human
# Protocol: (§1) Cell culture. A-172 (human glioblastoma cells), HepG2 (human hepatocellular carcinoma cells), M-HeLa (human cervical adenocarcinoma cells, M subclone), Vero (African green monkey kidney epithelial cells), and FetMSC (human embryonic mesenchymal stem cells) were purchased from the Russian Collection of Cell Cultures of Vertebrates (Institute of Cytology RAS, St. Petersburg, Russia). The U-251 MG cell line (human glioblastoma-astrocytoma) was purchased from the European Collection of Authenticated Cell Cultures (Salisbury, UK). All cells were grown at 37 °C in an atmosphere of 5% CO2. A-172 and Vero cells were cultured in DMEM medium (PanEco, Moscow, Russia). HepG2, HeLa, and U-251 MG cells were cultured in EMEM medium (PanEco). FetMSC cells were cultured in F12/DMEM medium (PanEco). All incubation media were supplemented with 10% fetal calf serum (BioWest, Nuaillé, France), 50 U/mL penicillin, and […] streptomycin (PanEco). Additionally, media for HeLa, HepG2, and U-251 MG cells were supplemented with 2 mM glutamine (PanEco) and 1% essential amino acids (PanEco), media for A-172 and Vero cells were supplemented with 4 mM glutamine, and the medium for FetMSC cells was supplemented with 3 mM glutamine. The medium for U-251 MG cells was additionally supplemented with 1 mM sodium pyruvate (PanEco).
# (§2) Cytotoxicity studies. The cytotoxicity of the compounds was assessed using the MTT test. Cells were seeded into 96-well plates at varying concentrations of 5 × 10^4 cells/mL (A-172, Vero and HeLa), 7 × 10^4 cells/mL (HepG2 and U-251 MG), and 10 × 10^4 cells/mL (FetMSC). The studied compounds were added to the incubation medium 24 h after seeding at concentrations ranging from 7.8 μM to 500 μM. All compounds were dissolved in DMSO and diluted with the incubation medium to their final concentrations just before use. The incubation medium in wells was aspirated and replaced with medium containing the studied compounds. The final concentration of DMSO in all samples was 0.1%. Control samples were treated with 0.1% DMSO. After 72 h of exposure, 3-(4,5-dimethylthiazol-2-yl)-2,5-diphenyl-2H-tetrazolium bromide (MTT) (Dia-M, Moscow, Russia) was added to the incubation medium at a concentration of 0.5 mg/mL. The resulting MTT-formazan crystals were dissolved in DMSO. The optical density was measured at 570 nm with a background wavelength of 620 nm using a Spark 10M plate reader. IC50 values were determined using a median effect analysis from the dose–effect relationships.
# HeLa = experiment: Cytotoxicity, MTT test; assay type: cell-based, human; details: 72 h of exposure
# Protocol: as §1, §2
# FetMSC = experiment: Cytotoxicity, MTT test; assay type: cell-based, human; details: Homo sapiens; 72 h of exposure, MTT
# Protocol: as §1, §2
# A-172 = experiment: Cytotoxicity, MTT test; assay type: cell-based, human
# Protocol: as §1, §2
# [7] = Cytotoxicity, MTT test, statements on all cell lines studied; assay type: cell-based; details: human, African green monkey, 72 h of exposure, summary over cell lines, read-out: cytotoxicity IC50, cells in general
# Protocol: as §1, §2
# MMP-2 = target: T1, MMP-2 (Homo sapiens, UniProt P08253); experiment: MMP activity assay, fluorogenic substrate (MMP Inhibitor Profiling Kit); assay type: biochemical; details: read-out: MMP-inhibiting activity IC50, MMP-2
# T1 construct: the BML- prefix points to Enzo Life Sciences, own knowledge BML-AK308
# T1 sequence (P08253 110-446 limits assumed): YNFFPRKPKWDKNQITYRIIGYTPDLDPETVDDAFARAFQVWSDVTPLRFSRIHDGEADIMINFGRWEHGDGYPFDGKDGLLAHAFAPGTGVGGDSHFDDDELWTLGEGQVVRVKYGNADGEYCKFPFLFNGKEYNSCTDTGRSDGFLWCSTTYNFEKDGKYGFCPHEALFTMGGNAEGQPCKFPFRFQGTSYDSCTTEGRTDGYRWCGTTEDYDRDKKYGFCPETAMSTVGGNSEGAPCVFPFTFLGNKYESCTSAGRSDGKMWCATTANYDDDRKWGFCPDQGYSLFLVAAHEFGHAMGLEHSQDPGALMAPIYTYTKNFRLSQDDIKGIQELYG
# Protocol: (§3) Determination of MMP activity. A fluorescently labeled substrate probe containing a fluorescent label and a fluorescence quencher, was utilized for this study. […] Enzyme activity was assessed using the MMP Inhibitor Profiling Kit (Product # BML-AK308, New York, NY, USA) according to the manufacturer’s recommendations. The nonspecific inhibitor NNGH was used as a positive control. The fluorescence of the fluorogenic substrate OmniMMP^TM RED was measured at wavelengths Ex/Em = 545/576 nm using a Spark 10M multimode plate reader (Tecan, Zurich, Switzerland). Reaction rates were expressed in relative fluorescence units (RFUs) per minute. The activity of MMPs in the presence of the studied compounds was determined as follows:Activity, % = (Vinh/Vcont) × 100,(1) where V is the initial reaction rate (RFUs/min) in the presence (Vinh) and absence (Vcont) of the studied compounds.
# (§4) All tested compounds were dissolved in DMSO. The final concentration of DMSO in all samples was 0.1%. Control samples were treated with 0.1% DMSO.
# MMP-14 = target: T2, MMP-14 (Homo sapiens, UniProt P50281); experiment: as above; assay type: biochemical; details: read-out: MMP-inhibiting activity IC50, MMP-14
# T2 construct: the BML- prefix points to Enzo Life Sciences, own knowledge BML-AK308
# Protocol: as §3, §4
# MMP-3 = target: T3, MMP-3 (Homo sapiens, UniProt P08254); experiment: as above; assay type: biochemical; details: read-out: MMP-inhibiting activity IC50, MMP-3
# T3 construct: the BML- prefix points to Enzo Life Sciences, own knowledge BML-AK308
# T3 sequence (P08254 100-272 limits assumed): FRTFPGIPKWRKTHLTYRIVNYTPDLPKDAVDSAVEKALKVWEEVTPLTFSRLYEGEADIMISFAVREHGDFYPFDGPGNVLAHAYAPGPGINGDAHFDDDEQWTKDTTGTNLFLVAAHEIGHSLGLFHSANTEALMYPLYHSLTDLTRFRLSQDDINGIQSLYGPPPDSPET
# Protocol: as §3, §4
# MMP-9 = target: T4, MMP-9 (Homo sapiens, UniProt P14780); experiment: as above; assay type: biochemical; details: read-out: MMP-inhibiting activity IC50, MMP-9
# T4 construct: the BML- prefix points to Enzo Life Sciences, own knowledge BML-AK308
# T4 sequence (P14780 107-444 limits assumed): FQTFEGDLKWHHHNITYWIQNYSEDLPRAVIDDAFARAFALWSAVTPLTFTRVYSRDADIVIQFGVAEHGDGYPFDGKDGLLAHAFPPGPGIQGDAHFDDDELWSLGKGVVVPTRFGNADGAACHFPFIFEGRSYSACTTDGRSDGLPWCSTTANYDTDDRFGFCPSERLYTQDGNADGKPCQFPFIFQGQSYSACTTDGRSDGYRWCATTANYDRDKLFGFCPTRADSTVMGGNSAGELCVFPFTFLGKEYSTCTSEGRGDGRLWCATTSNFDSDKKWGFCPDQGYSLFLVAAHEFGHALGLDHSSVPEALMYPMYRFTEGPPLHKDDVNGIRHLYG
# Protocol: as §3, §4
# Vero = experiment: Cytotoxicity, MTT test; assay type: cell-based, African green monkey; details: 72 h of exposure
# Protocol: as §1, §2
# U-251 MG = experiment: Cytotoxicity, MTT test; assay type: cell-based; details: Homo sapiens, 72 h of exposure
# Protocol: as §1, §2
# gelatinase A (MMP-2) = target: gelatinase A (MMP-2); set-up: method as in earlier work; details: read-out: IC50 for gelatinase A (MMP-2) inhibition; cited from earlier work
# [8] = test system: pancreatic carcinoma cells MiaPaCa2; set-up: method as in PMID 24022491; details: 5 μM, 24 h of exposure; cited from earlier work
# [9] = test system: pancreatic carcinoma cells CD18; set-up: method as in PMID 24022491; details: 5 μM, 24 h of exposure; cited from earlier work
# [10] = test system: hamster pancreatic cancer cell line PGHAM-1; set-up: method as in PMID 11291083; details: 72 h of exposure, cited from earlier work
# [11] = test system: CAC-1 cells (human cervical adenocarcinoma); set-up: method as in PMID 11925127; details: 72 h of exposure, cited from earlier work
# B16 melanoma [12] = experiment: Antimetastatic activity in vivo, lung metastases; set-up: species or system mouse; details: lungs, B16 melanoma, BDF1 mice, doses as in Table 5; for Number of Animals without Metastases: of 6 animals in the group
# Protocol: (§5) Antitumor activity in vivo. The B16 mouse melanoma was used as a tumor model. The B16 melanoma tumor strain was induced in male BDF1 mice by subcutaneous inoculation of 0.2–0.5 mL of a suspension of tumor tissue in medium 199 at intervals of 12–16 days. For the experiments, BDF1 mice were inoculated with 0.3 mL of a suspension of tumor tissue diluted in a 0.9% NaCl solution at a ratio of 1:5 subcutaneously on the right side.
# (§6) Compound 4 was dissolved in a 0.9% NaCl solution with 1% DMSO. […] Control animals were injected intraperitoneally with 1% DMSO in saline (0.9% NaCl) in the same volumes as the test compounds.
# And MNMcont. are the mean number of metastases in the experimental and control groups, respectively.
# B16 melanoma [13] = experiment: Antitumor activity in vivo, tumor growth; set-up: species or system mouse; details: BDF1 mice, i.p., CP 100 mg/kg days 2, 7, cPt 4 mg/kg days 2–9, 4 300 mg/kg days 2–9
# Protocol: as §5, §6
# Tumor growth was monitored on days 0, 6, 8, 10, 13, 15, 17, and 20 by measuring the tumor size with a digital caliper. The mean tumor diameter was calculated using the formula:D = 3√a × b × c,(2) where a, b, and c are mutually perpendicular tumor diameters.
# [14] = Homo sapiens, HepG2, 72 h of exposure
# [15] = Homo sapiens, A 172, 72 h of exposure
IC50 (MMP-2) [µM],IC50 (MMP-14) [µM],IC50 (MMP-3) [µM],IC50 (MMP-9) [µM],SMILES,IC50 (HepG2; [14]) [µM],"IC50 (HeLa; Homo sapiens, HeLa) [µM]",IC50 (FetMSC) [µM],IC50 (A-172; [15]) [µM],IC50 at 72 h [7] [µM],"IC50 (Vero; Chlorocebus sabaeus, Vero) [µM]",IC50 (U-251 MG) [µM],further results
,,,,CNC(=O)[C@@H](NC(=O)[C@H](CC(C)C)[C@H](O)C(=O)NO)C(C)(C)C [Marimastat],,,,,,,,effect on cells [1]: no effect; effect on cells [2]: no effect; reduction in cell viability (human glioma U-251 cells): 20–40%; cytotoxicity IC50 [3]: higher than 200 μg/mL; cytotoxicity IC50 [4]: 10.8 µg/mL; IC50 ([4]; read-out: cytotoxicity IC50): 32.6 µM; cytotoxicity IC50 [5]: higher than 200 μg/mL; IC50 ([5]; read-out: cytotoxicity IC50): > 603 µM
,,,,CC(C)[C@H](NS(=O)(=O)c1ccc(-c2ccc(Br)cc2)cc1)C(=O)O [PD166793],,,,,,,,concentrations toxic to cells [6]: above 100 μM
> 10,> 10,> 10,> 10,"O=C(CCC(=O)NNC(=O)c1ccc([N+](=O)[O-])cc1)NO [Compound 3, N-hydroxy-4-[2-(4-nitrobenzoyl)hydrazinyl]-4-oxobutanamide]",252 ± 15.8,237 ± 14.2,> 500,> 500,> 100,> 500,> 500,
,,,,C=C[C@H]1C[C@@H](C)C[C@@H](C)[C@@H]1c1c(O)ccn(O)c1=O [pyridoxatin],,,,,,,,IC50 (gelatinase A (MMP-2)): 15.2 µM
,,,,CNC(=O)[C@@H](NC(=O)[C@H](CCCc1ccccc1)[C@H](C)N(O)C=O)C(C)(C)C [GI254023X],,,,,,,,toxicity to cells [8]: toxic; toxicity to cells [9]: toxic
,,,,O=C(O)[C@@H](Cc1c[nH]c2ccccc12)NS(=O)(=O)c1ccc(-c2nnn(-c3ccccc3)n2)cc1 [MMI-166],,,,,,,,cytotoxicity IC50 [10]: higher than 100 μg/mL; IC50 ([10]; read-out: cytotoxicity IC50): > 205 µM; cytotoxicity IC50 [11]: higher than 50 μg/mL; IC50 ([11]; read-out: cytotoxicity IC50): > 102 µM
> 10,> 10,> 10,> 10,"O=C(CCC(=O)NNC(=O)c1ccccc1[N+](=O)[O-])NO [Compound 1, N-hydroxy-4-[2-(2-nitrobenzoyl)hydrazinyl]-4-oxobutanamide]",393 ± 26.2,377 ± 25.2,> 500,> 500,> 100,> 500,> 500,
,,,,"N.N.[Cl][Pt][Cl] [Cisplatin, cisplatin]",,,,,,,,"IC50 (HepG2; 72 h of exposure): 13.2 ± 1.62 µM; IC50 (HeLa): 11.7 ± 2.41 µM; IC50 (A-172; 72 h of exposure): 8.46 ± 0.92 µM; % Inhibition of Metastases (B16 melanoma [12]): 71.9%; Mean Number of Metastases per Mouse (B16 melanoma [12]): 3.3 ± 2.4; Metastasis Rate, % (B16 melanoma [12]): 83.3%; Number of Animals without Metastases (B16 melanoma [12]): 1; IC50 (Vero): 10.7 ± 1.45 µM; Tumor Growth Inhibition, % Day 10 (B16 melanoma [13]): 76.47%; Tumor Growth Inhibition, % Day 13 (B16 melanoma [13]): 61.11%; Tumor Growth Inhibition, % Day 15 (B16 melanoma [13]): 52.07%; Tumor Growth Inhibition, % Day 17 (B16 melanoma [13]): 32.00%; Tumor Growth Inhibition, % Day 20 (B16 melanoma [13]): 9.54%"
> 10,> 10,> 10,> 10,"O=C(CCC(=O)NNC(=O)c1cccc([N+](=O)[O-])c1)NO [Compound 2, N-hydroxy-4-[2-(3-nitrobenzoyl)hydrazinyl]-4-oxobutanamide]",213 ± 15.3,185 ± 15.3,> 500,> 500,> 100,> 500,> 500,
,,,,"O=P1(N(CCCl)CCCl)NCCCO1 (stereo not shown) [CP, cyclophosphamide]",,,,,,,,"% Inhibition of Metastases (B16 melanoma [12]): 39.3%; Mean Number of Metastases per Mouse (B16 melanoma [12]): 7.1 ± 2.2; Metastasis Rate, % (B16 melanoma [12]): 100%; Number of Animals without Metastases (B16 melanoma [12]): 0; Tumor Growth Inhibition, % Day 10 (B16 melanoma [13]): 52.94%; Tumor Growth Inhibition, % Day 13 (B16 melanoma [13]): 38.10%; Tumor Growth Inhibition, % Day 15 (B16 melanoma [13]): 43.20%; Tumor Growth Inhibition, % Day 17 (B16 melanoma [13]): 27.43%; Tumor Growth Inhibition, % Day 20 (B16 melanoma [13]): 14.02%"
> 10,> 10,> 10,> 10,"COc1ccccc1C(=O)NNC(=O)CCC(=O)NO [Compound 5, N-hydroxy-4-[2-(2-methoxybenzoyl)hydrazinyl]-4-oxobutanamide]",221 ± 12.6,194 ± 13.4,> 500,> 500,> 100,> 500,> 500,
